Results on two molecules are retold here after US12029682B2, “Spray ejector mechanisms and devices providing charge isolation and controllable droplet charge, and low dosage volume ophthalmic administration” (EYENOVIA, INC., priority 2012, dated 2024).

Data set [1] has as its system glaucomatous beagles. In words: Pupil diameter (PD), Jameson Caliper, in glaucomatous beagles. The conditions noted are these: for PD: spray ejector device, one dog. The class given is in vivo, beagle dog. How it is done: (§1) One glaucomatous beagle dog (female, aged 3 years) from the University of Florida MacKay Colony of Glaucomatous Beagles was chosen for this study. The animal was rested a minimum of one week before starting the study. Prior to the commencement of the study, the animal was assigned one eye to receive 1.5 μl of 0.005% latanoprost and the contralateral eye to remain untreated as a control. The basic measurement protocol was followed at all times and performed by the same operator. PD was measured via Jameson Caliper (mm horizontally). IOP was measured using a TonoVet instrument with clean probe (iCare). IOP and PD were measured at time 0, 1, 2, 4, 7 and 18 hours daily for two days. Immediately after the time 0 measurement, the animal received 1.5 μl of 0.005% latanoprost in its assigned eye with a spray device. The contralateral eye was left untreated. The spray device was checked for accuracy before and after every use, and required a 10% delivered dose accuracy in pretreatment. Standard measurements continued throughout each day at time 1, 2, 4, 7 and 18 hours. Possible endpoints included, but were not limited to, excessive ocular irritation, ocular damage, and other illness or injury. No statistical crossover was utilized for this study.
as §1, with “study.” for “study. The animal was rested a minimum of one week before starting the study.”, “receive 3.0” for “receive 1.5”, “0 measurements,” for “0 measurement,”, “animal was administered 3.0” for “animal received 1.5”, “eye using” for “eye with”, “spray ejector” for “spray”
All animals were rested for a minimum of one week before starting the trials. IOP and pupil diameter (PD) were measured 5 times (at 0, 1, 2, 4, and 7 hours) daily for four days (study days 1-4) to establish initial baseline levels. The basic measurement protocol was followed at all times and performed by the same operator. PD was measured via Jameson Caliper (mm horizontally). IOP was measured with a TonoVet instrument with clean probe (iCare). After three rest days, one eye was randomly assigned to receive 9 μl of 0.005% latanoprost delivered via a spray ejector device, and the contralateral eye was administered traditional latanoprost from a traditional eyedropper container (26-30 μl).
On study days 5-9, IOP and PD measurements were taken at approximately 0900 h (time 0). Immediately after time 0 measurements, each animal received a once-daily dose of 9 μl of generic 0.005% latanoprost in its assigned eye via the spray ejector device. […]

Data set [2] relates to glaucomatous beagles. Set-up: species or system beagle dog. The conditions noted are these: dog, in vivo. How it is done:
All animals are rested a minimum of one week before starting the trials. Intraocular pressure (IOP), pupil diameter (PD), and heart rate (HR) are measured 6 times (at 0, 0:30, 0:45, 1, 2, 7 hrs) daily for five days, for initial baseline levels (Study days 1-5). The basic measurement protocol is followed and performed by the operator. PD is measured via Jameson Caliper (mm horizontally). IOP is measured with a TonoVet instrument with clean probe (iCare). HR is monitored via palpation of the femoral vessels. After two rest days, one eye is randomly assigned to receive the drug delivered via the ejector device and the contralateral eye is given traditional latanoprost from an eye dropper container.
All animals were rested a minimum of one week before starting the trials. Intraocular pressure (IOP), pupil diameter (PD), and heart rate (HR) were measured daily at time 0, 12, 13, 14, 16, and 19 hours for five days starting at approximately 2100 h to establish initial baseline levels (study days 1-5). […] PD was measured via Jameson Caliper (mm horizontally). IOP was measured using a TonoVet instrument with clean probe (iCare). HR was monitored via palpation of the femoral vessels. […]
Following a 7 day rest period, the eye choice was reversed. […] A veterinary ophthalmologist evaluated each test subject before and after the study for evidence of ocular side effects. […]

Take `CC(C)OC(=O)CCC/C=C\C[C@@H]1[C@@H](CC[C@@H](O)CCc2ccccc2)[C@H](O)C[C@@H]1O` [latanoprost]: the PD with glaucomatous beagles [1] (1.5 μl of 0.005%, by hour 1 through hour 7) was 0 mm; in the data set on glaucomatous beagles [1] (3.0 μl of 0.005%, by hour 1 throughout hour 7) it was 0 mm. In the data set on glaucomatous beagles [1] (one drop of 0.005% by eyedropper), the “time to return to normal PD” value is no more than 24 h. In the data set with glaucomatous beagles [1] (traditional treatment, one drop by eyedropper, remained for the seven hours of monitoring), the “time at which the iris reached pinpoint status” value came to 1 h. Further, in the data set on glaucomatous beagles [1] (two 6 μl doses via ejector device, remained for the seven hours of monitoring), the “time at which the iris reached pinpoint status (maximum miosis)” value was found to be 1 h.

For the molecule `CC(C)OC(=O)CCC/C=C\C[C@@H]1[C@@H](/C=C/[C@@H](O)COc2cccc(C(F)(F)F)c2)[C@H](O)C[C@@H]1O` [travoprost], the “changes in HR” value in the data set with glaucomatous beagles [2] was “no changes in HR”.
